Experimental data: patent US4447608A, “Anti-cancer quinazoline derivatives” (priority 1979, dated 1984)
Entries after “also recorded” stand apart in the source; their conditions may differ. Where two headings read alike, the source gives them in different places.

Legend:
L1210:R71 cells = assay: Growth inhibition of methotrexate-resistant L1210:R71 cells in suspension culture, 48 h count; format: cell-based, mouse; details: relative to L1210
Experimental: The compounds of Example 2 were evaluated in vitro as inhibitors as TS and cell growth and in vivo against the L1210 tumour. Since methotrexate (MTX) resistance is an important problem in cancer therapy, the compounds of the present invention were also investigated with this in mind.
(§1) L1210 and L1210:R71 cells were grown in continuous suspension culture in RPMI 1640 medium containing 10% horse serum (Flow Laboratories, Irvine, Scotland; UK). Cells were diluted to 10^5 /ml and additions (diluted in medium and sterilised in Millipore filtration) made prior to starting each incubation. Cell counts were performed after 24 and 48 hours using an improved Neubauer haemocytometer.

L1210 tumour = assay: Treatment of L1210 ascitic tumour-bearing mice, survival; format: in vivo, mice (female C57B1×DBA2 F1 hybrid); details: for long term survivors (>120 days): FIG. 3
Experimental: (§2) The L1210 tumour was carried routinely in DBA2 mice. For experiments 5×10^4 cells were implanted i.p. into female C57B1×DBA2 F1 hybrid mice 3 days prior to treatment, giving an established tumour of about 2×10^6 cells at the time of treatment.
(Animals were injected with 20 mM NaHCO3 buffer 0.4 ml daily×5 days.
As the injection solutions could only be neutralised to pH 8.5 while preserving solubility, the appropriate controls were injected with bicarbonate at pH 8.5. […] For comparative purposes further groups of animals were treated with various doses of methotrexate, given on the same schedule.

[1] = majority of cell types; cited from earlier work
L1210 cells [2] = assay: Growth inhibition of L1210 cells in suspension culture, 48 h count; format: cell-based; details: Mus musculus
Experimental: Cells were diluted to 10^5 /ml and additions (diluted in medium and sterilised in Millipore filtration) made prior to starting each incubation. Cell counts were performed after 24 and 48 hours using an improved Neubauer haemocytometer.

L1210 cells [3] = assay: Reversal of toxicity to L1210 cells in culture by thymidine; format: cell-based, mouse
Experimental: as §1

L1210 cells [4] = assay: Reversal of toxicity to L1210 cells in culture by folinic acid; format: cell-based, mouse; details: folinic acid up to 100 μM; FIG. 1: 20 μM CB 3717
Experimental: as §1

[5] = system: transport of tritiated methotrexate into L1210 cells; assay: Inhibition of transport of tritiated methotrexate into L1210 cells; format: cell-based, mouse
Experimental: (§3) The compounds of Example 2 were evaluated in vitro as inhibitors as TS and cell growth and in vivo against the L1210 tumour. Since methotrexate (MTX) resistance is an important problem in cancer therapy, the compounds of the present invention were also investigated with this in mind. The cross-resistance of the MTX resistant cell line L1210/R71, which is known to have elevated DHFR but normal MTX transport, was measured in culture, and the ability of the compounds of the invention to compete with labelled MTX or folic acid for transport into L1210 cells was also assessed.
(§4) Transport studies were conducted on compound CB 3717 as representative of the invention compounds by incubating cells in the presence of a labelled substance, removing aliquots, separating and washing the cells by centrifugation and counting the pellet.

[6] = system: transport of tritiated folic acid into L1210 cells; assay: Inhibition of transport of tritiated folic acid into L1210 cells; format: cell-based, mouse
Experimental: as §3, §4

[7] = Toxicity and body weight change in treated L1210 tumour-bearing mice; format: in vivo, mice (female C57B1×DBA2 F1 hybrid)
Experimental: as §2

[8] = methotrexate 3 mg/kg (optimal dose), daily×5, 10 animals
[9] = 8 mg/kg i.p., daily × 5, 5 animals
[10] = 16 mg/kg i.p., daily × 5, 5 animals, first 16 mg/kg line
[11] = 16 mg/kg i.p., daily × 5, 5 animals, second 16 mg/kg line
[12] = 32 mg/kg i.p., daily × 5, 5 animals
[13] = 64 mg/kg i.p., daily × 5, 5 animals
[14] = 80 mg/kg i.p., single dose, 5 animals
[15] = 128 mg/kg i.p., daily × 5, 5 animals
[16] = 160 mg/kg i.p., single dose, 5 animals

CN(Cc1cnc2nc(N)nc(N)c2n1)c1ccc(C(=O)N[C@@H](CCC(=O)O)C(=O)O)cc1 [methotrexate, reference compound]
resistance of L1210:R71 to MTX (L1210:R71 cells): about 600 fold
increase in median lifespan (L1210 tumour; [8]): 71%
long term survivors (L1210 tumour; [8]): 2/10
metabolic degradation [1]: does not undergo significant metabolic degradation

C#CCN(Cc1ccc2nc(N)nc(O)c2c1)c1ccc(C(=O)N[C@@H](CCC(=O)O)C(=O)O)cc1 [CB 3717, N-(4-(N-((2-amino-4-hydroxy-6-quinazolinyl)methyl)prop-2-ynylamino)benzoyl)-L-glutamic acid]
IC50 (L1210 cells [2]; L1210, 48 h, second results table, read-out: ID50 L1210 (Tissue culture)): 6.5 to 8.5 µM
IC50 (L1210 cells [2]; L1210, Table 2, 48 hour count reduced to 50% of control, read-out: ID50 L1210): 5 µM
Reversal by thymidine (in culture) (L1210 cells [3]; second results table, L1210): yes
reversal of toxicity by co-incubation with thymidine (L1210 cells [3]; thymidine 10 μM, FIG. 1: 20 μM CB 3717): Reversal of the toxicity; also recorded: virtually complete protection
reversal of toxicity by folinic acid (L1210 cells [4]): only partial reversal; also recorded: does not reverse the effect
apparent transport by the pathway used for methotrexate [5]: can apparently be transported by the pathway used for methotrexate
effect on transport of tritiated methotrexate ([5]; 4 μM MTX, FIG. 2): inhibited; also recorded: dose-dependent reduction
apparent transport by the pathway for folic acid [6]: also by that for folic acid
effect on transport of tritiated folic acid ([6]; 4 μM folic acid, FIG. 2): inhibited; also recorded: dose-dependent reduction
% Increase in mean survival time (L1210 tumour; [9]): 8%
Long term survivors (>200 days) (L1210 tumour; [9]): 0
% Increase in mean survival time (L1210 tumour; [10]): 13%
Long term survivors (>200 days) (L1210 tumour; [10]): 0
% Increase in mean survival time (L1210 tumour; [11]): 29%
Long term survivors (>200 days) (L1210 tumour; [11]): 0
% Increase in mean survival time (L1210 tumour; [12]): 62%
Long term survivors (>200 days) (L1210 tumour; [12]): 0
% Increase in mean survival time (L1210 tumour; [13]): 72%
Long term survivors (>200 days) (L1210 tumour; [13]): 0
% Increase in mean survival time (L1210 tumour; [14]): 14%
Long term survivors (>200 days) (L1210 tumour; [14]): 0
Long term survivors (>200 days) (L1210 tumour; 125 mg/kg i.p., daily × 5, 10 animals): 9
% Increase in mean survival time (L1210 tumour; 125 mg/kg i.p., daily × 5, 10 animals, see FIG. 3): > 1200%
long term survivors (>120 days) (L1210 tumour; 125 mg/kg, 5 daily doses): 9 out of 10
% Increase in mean survival time (L1210 tumour; [15]): > 1200%
Long term survivors (>200 days) (L1210 tumour; [15]): 4
% Increase in mean survival time (L1210 tumour; [16]): 32%
Long term survivors (>200 days) (L1210 tumour; [16]): 0
Long term survivors (>200 days) (L1210 tumour; 200 mg/kg i.p., daily × 5, 10 animals): 9
% Increase in mean survival time (L1210 tumour; 200 mg/kg i.p., daily × 5, 10 animals, see FIG. 3): > 1200%
long term survivors (>120 days) (L1210 tumour; 200 mg/kg, 5 daily doses): 9 out of 10
increase in mean survival time with 5 daily dose schedule (L1210 tumour; 5 daily doses, see Table 3): dose related
difference in survival of CB 3717 and MTX treated animals, p (log rank test) (L1210 tumour; CB 3717 125 and 200 mg/kg vs MTX 3 mg/kg, daily×5): < 0.001
body weight change / signs of toxicity ([7]; 5 daily doses, 125 and 200 mg/kg/day, groups of 10 mice, FIG. 4): did not lose a significant amount of weight or show other signs of toxicity
toxicity of single doses ([7]; single doses up to 160 mg/Kg i.p.): not toxic
